In assay [1] the target is Leucine-rich repeat serine/threonine-protein kinase 2 (Homo sapiens, UniProt Q5S007). The experiment in a line: Inhibition of wild type LRRK2 (unknown origin) assessed as inhibition of LRRKtide phosphorylation after 120 mins by radiometric assay in presence of [gamma-33P]-ATP.
The target of assay [2] is Leucine-rich repeat serine/threonine-protein kinase 2 (Homo sapiens, UniProt Q5S007, G2019S). The assay can be described thus: Inhibition of LRRK2 G2019S mutant (unknown origin).
Sequence of Leucine-rich repeat serine/threonine-protein kinase 2 (Homo sapiens, UniProt Q5S007, G2019S) (Q5S007 whole entry G2019S, the tested form may be a part): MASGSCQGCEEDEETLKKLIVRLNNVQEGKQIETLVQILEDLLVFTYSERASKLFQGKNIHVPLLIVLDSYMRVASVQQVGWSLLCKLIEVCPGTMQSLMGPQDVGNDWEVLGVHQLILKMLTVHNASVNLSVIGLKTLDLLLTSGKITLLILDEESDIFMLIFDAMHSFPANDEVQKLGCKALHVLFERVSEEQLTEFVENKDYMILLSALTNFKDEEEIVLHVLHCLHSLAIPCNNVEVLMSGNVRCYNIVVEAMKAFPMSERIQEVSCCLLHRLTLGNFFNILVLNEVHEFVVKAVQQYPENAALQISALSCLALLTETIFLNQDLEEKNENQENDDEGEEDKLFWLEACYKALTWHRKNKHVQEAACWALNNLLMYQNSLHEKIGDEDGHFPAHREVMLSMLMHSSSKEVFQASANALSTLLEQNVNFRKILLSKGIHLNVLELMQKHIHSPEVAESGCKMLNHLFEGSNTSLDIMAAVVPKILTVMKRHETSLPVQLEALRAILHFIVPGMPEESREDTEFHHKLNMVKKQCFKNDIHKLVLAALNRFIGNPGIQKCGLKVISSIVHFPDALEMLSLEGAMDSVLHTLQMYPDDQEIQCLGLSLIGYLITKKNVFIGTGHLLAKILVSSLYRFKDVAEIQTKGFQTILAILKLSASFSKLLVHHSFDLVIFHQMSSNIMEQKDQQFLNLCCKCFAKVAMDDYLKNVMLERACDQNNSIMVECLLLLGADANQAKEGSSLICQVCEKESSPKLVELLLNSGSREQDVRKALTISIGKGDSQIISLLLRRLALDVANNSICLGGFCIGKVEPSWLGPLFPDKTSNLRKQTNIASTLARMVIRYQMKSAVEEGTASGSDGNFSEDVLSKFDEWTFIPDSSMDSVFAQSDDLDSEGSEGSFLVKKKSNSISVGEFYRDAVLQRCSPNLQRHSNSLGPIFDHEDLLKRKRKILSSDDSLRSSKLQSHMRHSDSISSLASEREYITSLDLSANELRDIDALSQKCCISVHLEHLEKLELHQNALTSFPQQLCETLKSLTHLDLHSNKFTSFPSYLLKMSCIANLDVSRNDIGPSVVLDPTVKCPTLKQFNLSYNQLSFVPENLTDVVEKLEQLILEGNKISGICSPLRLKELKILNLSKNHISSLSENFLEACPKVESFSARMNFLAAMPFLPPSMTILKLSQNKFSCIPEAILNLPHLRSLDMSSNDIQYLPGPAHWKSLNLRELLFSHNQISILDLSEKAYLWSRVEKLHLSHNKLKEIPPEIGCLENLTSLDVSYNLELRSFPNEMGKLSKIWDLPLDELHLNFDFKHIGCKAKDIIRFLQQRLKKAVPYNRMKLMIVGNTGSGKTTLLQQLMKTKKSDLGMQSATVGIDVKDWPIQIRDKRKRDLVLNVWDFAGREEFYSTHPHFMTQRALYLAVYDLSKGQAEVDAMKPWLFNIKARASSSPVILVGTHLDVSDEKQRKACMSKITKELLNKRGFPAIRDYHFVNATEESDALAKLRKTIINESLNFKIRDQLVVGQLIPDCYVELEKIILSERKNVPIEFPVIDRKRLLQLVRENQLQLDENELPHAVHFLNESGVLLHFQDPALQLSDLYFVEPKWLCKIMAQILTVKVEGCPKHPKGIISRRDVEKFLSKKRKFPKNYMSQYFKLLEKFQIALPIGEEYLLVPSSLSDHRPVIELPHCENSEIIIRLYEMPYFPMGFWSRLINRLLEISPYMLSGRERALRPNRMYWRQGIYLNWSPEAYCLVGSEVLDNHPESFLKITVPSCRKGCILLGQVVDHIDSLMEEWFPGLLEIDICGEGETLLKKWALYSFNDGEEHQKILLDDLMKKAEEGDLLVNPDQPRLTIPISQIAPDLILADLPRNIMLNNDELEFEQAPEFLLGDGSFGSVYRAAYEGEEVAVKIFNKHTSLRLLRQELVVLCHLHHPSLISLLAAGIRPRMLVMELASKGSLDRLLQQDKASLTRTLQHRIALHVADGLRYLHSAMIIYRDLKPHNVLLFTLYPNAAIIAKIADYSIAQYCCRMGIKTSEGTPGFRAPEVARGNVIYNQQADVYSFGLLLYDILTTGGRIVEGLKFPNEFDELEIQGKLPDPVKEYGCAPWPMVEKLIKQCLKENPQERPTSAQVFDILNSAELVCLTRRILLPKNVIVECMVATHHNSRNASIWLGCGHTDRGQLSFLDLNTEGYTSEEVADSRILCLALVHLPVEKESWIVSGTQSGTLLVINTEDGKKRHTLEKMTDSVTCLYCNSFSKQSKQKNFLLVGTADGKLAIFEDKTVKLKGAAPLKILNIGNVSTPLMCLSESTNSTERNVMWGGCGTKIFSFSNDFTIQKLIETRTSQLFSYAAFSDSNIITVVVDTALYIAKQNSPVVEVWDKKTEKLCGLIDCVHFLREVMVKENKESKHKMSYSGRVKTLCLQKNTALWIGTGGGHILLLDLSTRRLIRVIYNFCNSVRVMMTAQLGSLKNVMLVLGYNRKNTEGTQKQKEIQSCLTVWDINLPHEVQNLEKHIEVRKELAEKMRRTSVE
Assay [3] concerns the target Tyrosine-protein kinase JAK2 (Homo sapiens) (UniProt O60674). The experiment in a line: Inhibition of JAK2 JH1 catalytic domain (unknown origin) at 10 uM relative to control.

Sequence of Leucine-rich repeat serine/threonine-protein kinase 2 (Homo sapiens, UniProt Q5S007) (Q5S007 whole entry): as the sequence (Q5S007 whole entry G2019S, the tested form may be a part) above, with S2019G counted along it
Sequence of Tyrosine-protein kinase JAK2 (Homo sapiens) (O60674 whole entry, the tested form may be a part): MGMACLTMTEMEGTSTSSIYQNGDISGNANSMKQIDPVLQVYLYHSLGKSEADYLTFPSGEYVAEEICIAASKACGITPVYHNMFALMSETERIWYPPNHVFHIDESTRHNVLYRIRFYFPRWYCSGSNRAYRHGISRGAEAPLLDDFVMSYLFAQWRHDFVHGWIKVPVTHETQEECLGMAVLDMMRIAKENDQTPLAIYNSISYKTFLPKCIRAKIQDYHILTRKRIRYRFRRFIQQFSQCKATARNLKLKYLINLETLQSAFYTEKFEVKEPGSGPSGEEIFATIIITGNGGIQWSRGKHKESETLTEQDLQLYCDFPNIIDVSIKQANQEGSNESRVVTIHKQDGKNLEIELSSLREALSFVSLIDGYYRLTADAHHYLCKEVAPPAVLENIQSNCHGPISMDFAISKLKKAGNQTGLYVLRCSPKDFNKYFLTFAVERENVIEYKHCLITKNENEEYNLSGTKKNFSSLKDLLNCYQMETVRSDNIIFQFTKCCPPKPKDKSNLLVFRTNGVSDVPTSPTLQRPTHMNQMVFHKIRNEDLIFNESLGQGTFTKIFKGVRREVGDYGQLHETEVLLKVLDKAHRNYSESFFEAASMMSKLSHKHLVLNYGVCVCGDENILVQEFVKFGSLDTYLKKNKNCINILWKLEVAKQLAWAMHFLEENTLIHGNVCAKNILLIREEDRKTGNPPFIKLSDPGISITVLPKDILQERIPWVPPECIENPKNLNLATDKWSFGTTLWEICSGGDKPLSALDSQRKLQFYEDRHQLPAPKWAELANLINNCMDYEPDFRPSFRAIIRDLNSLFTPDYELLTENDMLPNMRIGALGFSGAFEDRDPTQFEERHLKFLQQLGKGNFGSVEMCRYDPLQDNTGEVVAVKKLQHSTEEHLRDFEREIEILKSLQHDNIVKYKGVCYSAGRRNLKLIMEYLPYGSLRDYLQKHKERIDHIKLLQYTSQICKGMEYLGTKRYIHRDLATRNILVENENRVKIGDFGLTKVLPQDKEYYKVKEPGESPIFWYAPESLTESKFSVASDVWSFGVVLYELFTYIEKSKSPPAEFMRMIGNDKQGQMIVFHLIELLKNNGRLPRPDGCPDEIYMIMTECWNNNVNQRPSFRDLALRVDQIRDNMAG

As for `CC(c1ccc(NC(=O)c2cc(C3CC3)[nH]n2)cc1)N1CCOCC1` (configuration not stated), the figures for the half-inhibitory concentration (IC50) in assay [1] and in assay [2] were 4.8 µM and 1.9 µM, respectively.
The corresponding values for `O=C(NCCO)c1ccc(Nc2nc(-c3ccccc3)c3cc(Cl)ccc3n2)cc1` are 2.8 µM and 2 µM.
In the case of `Cc1ccc(NC(=O)c2ccc(CN3CCNCC3)cc2)cc1Nc1nccc(-c2cccnc2)n1`, the figures for the IC50 in assay [1] and in assay [2] were 4.6 µM and 3.3 µM, respectively.
`N#Cc1ccc(Nc2ccc3[nH]c(=O)[nH]c3c2)c([N+](=O)[O-])c1` displayed an inhibition in assay [3] of 74%.

For orientation: IC50 means the midpoint of a concentration-inhibition curve. A word on the inhibition: it is the change of the read-out against control, counted positive when it falls.

Values taken from ChEMBL document CHEMBL3588794, “Discovery of LRRK2 inhibitors using sequential in silico joint pharmacophore space (JPS) and ensemble docking” (Bioorg Med Chem Lett, 2015).
